# Experimental data taken from patent US20240261398A1 (priority 2018, published 2024).
# “And” between values parts separate entries of the source, which are not always exact repeats. Equal values may be shown once.
# Legend:
# [1] = system: MA-CA04 virus; design: species or system mice; details: mouse, in vivo
# [2] = system: MA-CA04 virus; design: species or system BALB/c mice; details: mouse, in vivo
compound,measurement,setting,value
O.O=P([O-])([O-])OCC(O)CO.[Ca+2] (stereo not shown),Survival rate (%),[1],75%
same,influence on body weight (FIG. 3 A and C),[1],the same level as the previously known adjuvant Poly(I:C)
same,survival rate (FIG. 3 B and D),[1],the same level as Poly(I:C) or was slightly lower than Poly(I:C)
CC(/C=C/C=C(C)/C=C/C(=O)O)=C\C=C\C=C(C)\C=C\C=C(C)\C=C\C(=O)O (stereo in doubt) [Norbixin],Survival rate (%),[1],50%
same,"Mean value of antibody titers (Log 10 PFU/g) ± Standard deviation, Lung, 3 days after infection",[2],7.2 ± 0.3 Log 10 PFU/g and 7.4 ± 0.3 Log 10 PFU/g
CC(/C=C/C=C(\C)C(=O)O[C@@H]1O[C@H](CO[C@@H]2O[C@H](CO)[C@@H](O)[C@H](O)[C@H]2O)[C@@H](O)[C@H](O)[C@H]1O)=C\C=C\C=C(C)\C=C\C=C(/C)C(=O)O[C@@H]1O[C@H](CO[C@@H]2O[C@H](CO)[C@@H](O)[C@H](O)[C@H]2O)[C@@H](O)[C@H](O)[C@H]1O [Crocin],Survival rate (%),[1],50%
COC(=O)[C@H](Cc1ccccc1)NC(=O)[C@H](CC(=O)O)NCCC(C)(C)C [Neotame],"Mean value of antibody titers (Log 10 PFU/g) ± Standard deviation, Lung, 3 days after infection",[2],7.5 ± 0.3 Log 10 PFU/g and 7.5 ± 0.2 Log 10 PFU/g
same,"Mean value of antibody titers (Log 10 PFU/g) ± Standard deviation, Nasal concha, 3 days after infection",[2],6.1 ± 0.05 Log 10 PFU/g and 6.3 ± 0.1 Log 10 PFU/g
same,"virus titers in the nasal concha and the lung, six days after the infection",[2],no virus titers were detected in some mice
Cc1cc2nc3c(=O)[nH]c(=O)nc-3n(C[C@H](O)[C@H](O)[C@H](O)CO)c2cc1C [Riboflavin],Survival rate (%),[1],25%
C[C@@H]1O[C@@H](OC[C@H]2O[C@@H](Oc3c(-c4ccc(O)c(O)c4)oc4cc(O)cc(O)c4c3=O)[C@H](O)[C@@H](O)[C@@H]2O)[C@H](O)[C@H](O)[C@H]1O [Rutin hydrate],Survival rate (%),[1],75%
O=C([O-])c1ccccc1.[Na+] [Sodium benzoate],"Mean value of antibody titers (Log 10 PFU/g) ± Standard deviation, Lung, 3 days after infection",[2],6.7 ± 0.2 Log 10 PFU/g and 7.0 ± 0.2 Log 10 PFU/g
same,"Mean value of antibody titers (Log 10 PFU/g) ± Standard deviation, Nasal concha, 3 days after infection",[2],6.4 ± 0.1 Log 10 PFU/g and 6.2 ± 0.04 Log 10 PFU/g
same,"virus titers in the nasal concha and the lung, six days after the infection",[2],no virus titers were detected in some mice
O=S([O-])[O-].[Na+].[Na+] [Sodium sulfite],"Mean value of antibody titers (Log 10 PFU/g) ± Standard deviation, Lung, 3 days after infection",[2],7.0 ± 0.1 Log 10 PFU/g
same,"Mean value of antibody titers (Log 10 PFU/g) ± Standard deviation, Nasal concha, 3 days after infection",[2],6.1 ± 0.3 Log 10 PFU/g and 6.2 ± 0.2 Log 10 PFU/g
